The subject of data set [1] is Eupatorium adenophorum. The data set is described as follows: Spraying herbicide aqueous solution on Eupatorium adenophorum plants (contact killing). It counts as in vivo. The method, then: (1) 25 mL of the methyl 4-hydroxyphenylacetate herbicide aqueous solution prepared in Example 1 was taken and sprayed evenly on the surface of Eupatorium adenophorum plants.
When not sprayed, the Eupatorium adenophorum plant had one pair of top leaves, one head inflorescence, one pair of tender leaves under the top leaves, and three pairs of mature leaves. The plant was healthy and vigorous, with a height of 40-50 cm. […] The uppermost one pair of mature leaves among the three pairs of mature leaves withered in a large area. The lower two pairs of mature leaves began to wither from the edge inwards, and the axillary buds also died. These deaths were irreversible.
(2) 25 mL of the methyl 4-hydroxyphenylacetate herbicide aqueous solution prepared in Example 3 was taken and sprayed evenly on the surface of Eupatorium adenophorum plants.
When not sprayed, the Eupatorium adenophorum plant had one pair of top leaves, one head inflorescence, one pair of tender leaves under the inflorescence, and four pairs of mature leaves. The plant was healthy and vigorous, with a height of 40-50 cm.
(5) 25 mL of the methyl 4-hydroxyphenylacetate herbicide aqueous solutions prepared in Comparative Examples 1 to 2 were taken and sprayed evenly on the surface of Eupatorium adenophorum plants.

A short description of data set [2]: Dissolution of methyl 4-hydroxyphenylacetate in 15% ethanol solution. It counts as physicochemical. To be noted: 1.82787 g in 50 mL of 15% ethanol solution. The method, then: The methyl 4-hydroxyphenylacetate was purchased on the market. 1.82787 g of methyl 4-hydroxyphenylacetate was weighed, and added with 50 mL of a 15% absolute ethanol solution for dissolution.

In the case of `COC(=O)Cc1ccc(O)cc1` [methyl 4-hydroxyphenylacetate, Methyl 4-hydroxyphenylacetate], the “effect on Eupatorium adenophorum at use concentration greater than 150 mmol/L” value in data set [1] (sprayed once) is reported as “contact killing effect”. Further, in data set [1] (use concentration greater than 150 mmol/L), the “time after spraying until old leaves / plant are basically withered” value is 4 to 5 days. Also, the “solubility in 15% absolute ethanol solution” value in data set [2] is “could not be sufficiently dissolved”.

Values taken from patent publication US20230345936A1, “NOVEL ENVIRONMENT-FRIENDLY HERBICIDE” (KUNMING INSTITUTE OF BOTANY, CHINESE ACADEMY OF SCIENCES, priority 2022, published 2023).
